How the values were obtained:
[1] = tested on: tumor cells such as the HT-29 colon carcinoma or LX-1 lung tumor; assay: Cytotoxicity, microculture tetrazolium assay (MTT); assay type: cell-based; details: 48 hours incubation, T/C of 50%, cell line not given
Description: Cytotoxicity was measured using a standard methodology for adherent cell lines, such as the microculture tetrazolium assay (MTT). Details of this assay have been published (Alley, M. C. et al., Cancer Research 48: 589-601, 1988). Exponentially growing cultures of tumor cells such as the HT-29 colon carcinoma or LX-1 lung tumor were used to make microtiter plate cultures. Cells were seeded at 5000-20,000 cells per well in 96-well plates (in […] of media), and grown overnight at 37° C. Test compounds were added, in 10-fold dilutions varying from 10^−4 M to 10^−10 M. Cells were then incubated for 48 hours. To determine the number of viable cells in each well, the MTT dye was added ([…] of a 3 mg/mL solution of 3-(4,5-dimethylthiazol-2-yl)-2,5-diphenyltetrazolium bromide in saline). This mixture was incubated at 37° C. for 5 hours, and then […] of 25% SDS, pH 2, was added to each well. After an overnight incubation, the absorbance of each well at 550 nm was read using an ELISA reader. The values for the mean+/−SD of data from replicated wells were calculated, using the formula % T/C (% viable cells treated/control). The concentration of test compound which gives a T/C of 50% growth inhibition was designated as the IC50.

[2] = tested on: National Cancer Institute's P388 lymphocytic leukemia (PS system) cell line; details: cited from earlier work
[3] = synthetic Dolastatin 15; cited from earlier work

Row | Compound | IC50 [1] [nM] | inhibition of growth of P388 cell line [2] | solubility in aqueous systems [3]
1 | CC(C)C(NC(=O)[C@H](C(C)C)N(C)C)C(=O)N(C)[C@H](C(=O)N1CCC[C@H]1C(=O)NC1CCCC1C(=O)NCc1ccccc1)C(C)C (stereo partly drawn) [VII-2, Me2-Val-Val-MeVal-Pro-[cis-2-aminocyclopentanecarboxylic acid]-NHBn] | > 1000 | – | –
2 | Dolastatin 15 | – | markedly inhibits the growth | poor solubility
3 | CNC(=O)c1cccc(C2CCCC2)c1NC(=O)[C@@H]1CCCN1C(=O)[C@H](C(C)C)N(C)C(=O)[C@@H](NC(=O)[C@H](C(C)C)N(C)C)C(C)C [Compound I-7, 2-(Me2ValVal-MeVal-ProNH)-3-cyclopentanyl-C6H3C(O)NHCH3] | 400 | – | –
4 | CON(C)C(=O)c1ccccc1NC(=O)[C@@H]1CCCN1C(=O)[C@H](C(C)C)N(C)C(=O)C(NC(=O)[C@H](C(C)C)N(C)C)C(C)C (stereo partly drawn) [Compound I-60, (2)-(Me2Val-Val-MeVal-Pro-NH)—C6H4—CON(CH3)(OCH3)] | 400 | – | –
5 | 2-(Me2Val-Val-MeVal-Pro-NH)—C6H4—CO—CH3 [IV-1] | > 1000 | – | –

— US20010018422A1, “Dolastatin 15 derivatives” (BASF Aktiengesellschaft, priority 1999, published 2001)
